Experimental data taken from patent US7893025B2, “Use of growth hormone releasing factor analogs in treating patients suffering from wasting” (Theratechnolgies Inc., priority 2003, dated 2011).

Assay: Adverse events and safety laboratory parameters; discontinuations
Format: in vivo, human
Details: 2 mg group, following 1 month of treatment
Experimental: The results presented herein were obtained from a multicentre, randomized, double-blind, placebo-controlled study. The compound TH9507 was administered by subcutaneous injection daily (1 or 2 mg dose) for a three-month period. Patients were of both genders, aged 50 years or older, with stable COPD as per the 1995 American Thoracic Society criteria.
Adverse events and safety laboratory parameters (haematology, biochemistry, urinalysis) were measured using standard laboratory methods.

CC/C=C/CC(=O)N[C@@H](Cc1ccc(O)cc1)C(=O)N[C@@H](C)C(=O)N[C@@H](CC(=O)O)C(=O)N[C@@H](C)C(=O)N[C@H](C(=O)N[C@@H](Cc1ccccc1)C(=O)N[C@H](C(=O)N[C@@H](CC(N)=O)C(=O)N[C@@H](CO)C(=O)N[C@@H](Cc1ccc(O)cc1)C(=O)N[C@@H](CCCNC(=N)N)C(=O)N[C@@H](CCCCN)C(=O)N[C@H](C(=O)N[C@@H](CC(C)C)C(=O)NCC(=O)N[C@@H](CCC(N)=O)C(=O)N[C@@H](CC(C)C)C(=O)N[C@@H](CO)C(=O)N[C@@H](C)C(=O)N[C@@H](CCCNC(=N)N)C(=O)N[C@@H](CCCCN)C(=O)N[C@@H](CC(C)C)C(=O)N[C@@H](CC(C)C)C(=O)N[C@@H](CCC(N)=O)C(=O)N[C@@H](CC(=O)O)C(=O)N[C@H](C(=O)N[C@@H](CCSC)C(=O)N[C@@H](CO)C(=O)N[C@@H](CCCNC(=N)N)C(=O)N[C@@H](CCC(N)=O)C(=O)N[C@@H](CCC(N)=O)C(=O)NCC(=O)N[C@@H](CCC(=O)O)C(=O)N[C@@H](CO)C(=O)N[C@@H](CC(N)=O)C(=O)N[C@@H](CCC(N)=O)C(=O)N[C@@H](CCC(=O)O)C(=O)N[C@@H](CCCNC(=N)N)C(=O)NCC(=O)N[C@@H](C)C(=O)N[C@@H](CCCNC(=N)N)C(=O)N[C@@H](C)C(=O)N[C@@H](CCCNC(=N)N)C(=O)N[C@@H](CC(C)C)C(N)=O)[C@@H](C)CC)C(C)C)[C@@H](C)O)[C@@H](C)CC [TH9507, (hexenoyl trans-3)hGRF(1-44)NH2]
Discontinuation possibly related to study drug: one patient in the 2 mg group who showed elevated creatine phosphokinase (CPK) and serum glutamic oxaloacetic transaminase (SGOT) values
